Laboratory results published in patent US7553929B2, “Cell permeable peptides for inhibition of inflammatory reactions and methods of use” (Vanderbilt University, priority 1994, dated 2009).

How the values were obtained:
[1] = system: NIH 3T3 cells; assay: DNA synthesis by flow cytometric analysis in serum-starved NIH 3T3 cells; format: cell-based; settings: 15 ng ml^−1, 20 h
Procedure: To further confirm the mitogenic activity of the SA peptide, its effect on DNA synthesis was examined. Serum-starved NIH 3T3 cells were treated with SA peptide, fixed, and the DNA concentration was determined by standard flow cytometric analysis. Specifically, confluent NIH 3T3 cells (1.3×10^6 cells) were serum-starved in DMEM containing 0.5% FBS for 2 days. The cells were untreated (control) or treated with SA peptide or aFGF for 20 h, harvested, spun down, and washed with serum-free PBS, three times. The cells were fixed with methanol precooled to −20° C. for DNA analysis carried out by the Flow Cytometry Research Service of Vanderbilt University. The data were the mean ±S.E.M. of six measurements and were analyzed for statistical significance by analysis of variance.

[2] = system: NIH 3T3 cells; settings: aFGF binding to FGF receptors on NIH 3T3 cells; cited from earlier work
[3] = system: NIH 3T3 cells; assay: [3H]thymidine incorporation (mitogenic response) of NIH 3T3 cells; format: cell-based; settings: serum-starved NIH 3T3 cells, 16 h + 4 h
Procedure: A 26-residue hybrid peptide (referred to as SA, listed herein as SEQ ID NO:3) was designed and synthesized. […] Thus, the SA peptide differs from the SM peptide only in its 7-residue carboxyl terminal “cargo” region. A functional assay was performed in which SA peptide was able to induce a mitogenic response of NIH 3T3 cells measured by [^3H]thymidine incorporation in a manner similar to aFGF bearing, the same NLS. ^18
In this functional assay, confluent 3T3 cells grown initially in DMEM containing 10% FBS were transferred to a low serum medium (DMEM containing 0.5% FBS) for 2 days. The test peptides, either SA peptide, SAα pep-tide, ANL peptide, or SM peptide, or aFGF, were added to a fresh low serum medium at the indicated concentrations at 37° C. After 16 hours, [^3H]thymidine was added and 4 hours later, the cells were washed with PBS, treated with trichloroacetic acid, solubilized with 0.15 M NaOH, and the radioactivity was determined in a liquid scintillation counter.
Bars represent the mean±S.E.M. of at least three independent experiments done in triplicate and calculated as multiplicity of counts in the tested sample over the control sample. SA peptide within the concentration range used (0 to 46 μM) was not cytotoxic as determined by staining with fluorescein diacetate/ethidium bromide. ^20

## aFGF: acidic fibroblast growth factor
[1]
  Diploid % S Phase: 27.8 ± 2.3 (P < 0.05) %
[2]
  Tyrosine phosphorylation of intracellular proteins: induces the tyrosine phosphorylation
[3]
  Stimulation of [3H]thymidine incorporation over control: ~8 fold
